From article PMC7470779 (Acta Pharmacologica Sinica, 2019)

What was measured:
[1] = molecular target: T1, human OAT1 (Homo sapiens, UniProt Q4U2R8); experiment: Inhibition of 6-CF uptake in hOAT1-HEK293 cells; assay type: cell-based
T1 sequence (Q4U2R8 1-550 isoform Q4U2R8-2): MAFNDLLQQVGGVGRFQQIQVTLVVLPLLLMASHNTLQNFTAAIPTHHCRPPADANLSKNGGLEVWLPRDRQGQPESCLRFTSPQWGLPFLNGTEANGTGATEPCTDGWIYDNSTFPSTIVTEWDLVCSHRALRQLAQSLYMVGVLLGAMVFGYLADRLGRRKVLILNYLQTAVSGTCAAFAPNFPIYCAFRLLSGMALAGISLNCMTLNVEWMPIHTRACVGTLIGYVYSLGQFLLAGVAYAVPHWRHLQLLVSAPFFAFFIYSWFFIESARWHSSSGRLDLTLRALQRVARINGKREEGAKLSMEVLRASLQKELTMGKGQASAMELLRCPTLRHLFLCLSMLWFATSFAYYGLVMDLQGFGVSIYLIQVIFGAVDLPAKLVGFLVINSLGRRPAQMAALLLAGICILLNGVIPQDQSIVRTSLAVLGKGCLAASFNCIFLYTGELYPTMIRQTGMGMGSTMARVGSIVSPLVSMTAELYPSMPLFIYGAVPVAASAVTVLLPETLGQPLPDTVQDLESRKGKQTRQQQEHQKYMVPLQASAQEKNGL

[2] = molecular target: T2, human OAT3 (Homo sapiens, UniProt Q8TCC7); experiment: Inhibition of 6-CF uptake in hOAT3-HEK293 cells; assay type: cell-based
T2 sequence (Q8TCC7 1-542): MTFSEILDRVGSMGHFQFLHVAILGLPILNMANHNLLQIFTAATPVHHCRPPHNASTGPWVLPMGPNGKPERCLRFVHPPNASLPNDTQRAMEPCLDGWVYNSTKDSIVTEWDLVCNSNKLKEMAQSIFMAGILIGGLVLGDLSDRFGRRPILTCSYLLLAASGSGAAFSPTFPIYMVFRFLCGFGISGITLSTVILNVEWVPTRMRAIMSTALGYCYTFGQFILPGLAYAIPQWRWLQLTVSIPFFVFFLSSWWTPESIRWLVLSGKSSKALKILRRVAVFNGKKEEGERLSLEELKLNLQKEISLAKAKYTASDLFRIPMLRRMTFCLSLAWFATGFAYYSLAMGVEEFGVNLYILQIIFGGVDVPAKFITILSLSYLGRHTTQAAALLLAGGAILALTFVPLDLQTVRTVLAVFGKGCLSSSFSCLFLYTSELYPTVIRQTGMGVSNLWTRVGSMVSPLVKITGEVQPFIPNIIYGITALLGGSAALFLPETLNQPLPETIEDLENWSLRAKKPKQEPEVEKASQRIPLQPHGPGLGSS

[3] = molecular target: T1, human OAT1; experiment: Acyclovir uptake in hOAT1-HEK293 cells; assay type: cell-based
[4] = molecular target: T2, human OAT3; experiment: Acyclovir uptake in hOAT3-HEK293 cells; assay type: cell-based
[5] = molecular target: T3, human transporter MRP2 (Homo sapiens, UniProt Q92887); experiment: Transcellular transport of acyclovir in MRP2-MDCK cells; assay type: in vitro ADME; conditions: acyclovir 10 μmol/L, TER 10 μmol/L, MK571 20 μmol/L
[6] = molecular target: T3, human transporter MRP2; experiment: Accumulation of acyclovir in MRP2-MDCK cells; assay type: cell-based
[7] = molecular target: T1, human OAT1; experiment: TER cellular uptake in hOAT1-HEK293 cells; assay type: in vitro ADME; conditions: TER 20 μmol/L, 20 min, with or without probenecid 200 μmol/L
[8] = molecular target: T2, human OAT3; experiment: TER cellular uptake in hOAT3-HEK293 cells; assay type: in vitro ADME; conditions: TER 20 μmol/L, 20 min, with or without probenecid 200 μmol/L
[9] = cited from earlier work
[10] = in vivo; conditions: Sprague-Dawley, rat, iv, 30 mg/kg, AUC0-∞
[11] = Cumulative urinary excretion of acyclovir in rats; conditions: acyclovir alone 30 mg/kg iv
[12] = Sprague-Dawley, rat, plasma, intraperitoneal

In the case of `Cc1oncc1C(=O)Nc1ccc(C(F)(F)F)cc1` [LEF, leflunomide], the “inhibitory effect on OAT1 (6-CF uptake)” value ([1]; hOAT1-HEK293 cells, LEF 1–100 μmol/L) is reported as “no significant inhibitory effect”, the IC50 [2] is reported as 4.1 µM and the “effect on OAT1-mediated acyclovir transport (uptake)” value [3] is reported as “only inhibited OAT3-mediated acyclovir transport”. For the same compound, the “effect on OAT3-mediated acyclovir transport (uptake)” value [4] was “inhibited”.
For `CN(C)C(=O)CCSC(SCCC(=O)O)c1cccc(/C=C/c2ccc3ccc(Cl)cc3n2)c1` (centres unmarked) [MK571], the “ER value of acyclovir reduced to, in the presence of inhibitor” value [5] was 1.46 and the “effect on the plasma concentration and plasma clearance of acyclovir” value (rats, coadministration) was “no effect”.
For `C/C(O)=C(\C#N)C(=O)Nc1ccc(C(F)(F)F)cc1` [TER, teriflunomide], the IC50 [6] was 4.91 µM, the “ER value of acyclovir reduced to, in the presence of inhibitor” value [5] was 1.46 and the IC50 [1] was 3.39 µM. For the same compound, the IC50 [2] was 0.87 µM, the “effect on OAT1-mediated acyclovir transport (uptake)” value [3] was “significantly inhibited” and the “effect on OAT3-mediated acyclovir transport (uptake)” value [4] was “significantly inhibited”. The “substrate of OAT1” value [7] was “not a substrate”, the “substrate of OAT3” value [8] was “not a substrate” and the “mean plasma concentration of TER” value [12] was 25900 to 37800 ng/mL. For the same compound, the “time at which peak plasma concentration of TER was reached” value [12] was 2 h and the “half-life of TER in the plasma” value [9] was “approximately two weeks”.
With `Nc1nc2c(ncn2COCCO)c(=O)[nH]1` [acyclovir] the AUC(0-inf) [10] was 30600 ± 4530 ng·h/mL, the AUC(0-inf) ([10]; rats, acyclovir 30 mg/kg iv, acyclovir alone) was 25800 ± 3020 ng·h/mL and the “24-h cumulative urinary excretion of acyclovir (% of the dose recovered)” value [11] was 78.4%.
